Assays:
[1] = target: T1, human TLR2 (Homo sapiens, UniProt O60603); experiment: Activation of human TLR2 IV: HEK-BLUE-hTLR2 assay; format: cell-based; details: HEK-BLUE-hTLR2 cells, FIG. 4
T1 construct: expressed in transfected cells; host or cells: HEK-Blue hTLR2 cells
Description: HEK-BLUE-hTLR2 cells are designed for studying the stimulation of human TLR2 (hTLR2) by monitoring the activation of NF-kB. HEK-BLUE-hTLR2 cells are obtained by co-transfection of the hTLR2 and SEAP (secreted embryonic alkaline phosphatase) reporter genes into HEK293 cells. Stimulation with a TLR2 ligand activates NF-kB which induces the production of SEAP. HEK-BLUE-hTLR2 cells were purchased from InvivoGen (San Diego, CA, USA). […] xii) Add immediately […] of the cell suspension per well of the plate which contains the solution of the compounds. The plate is then returned to the incubator at 37° C. for 16 hr and was read at 620 nm by using an ELISA reader.

[2] = Stability III: accelerated aging at 40° C., 3 or 6 weeks, HPLC recovery; format: physicochemical
Description: Recovery of the target compound was assessed by HPLC, and the values as a percentage of the reference sample are reported in Table 14 and in FIG. 5.

[3] = Stability IV: accelerated storage stability over 28 days, UHPLC; format: physicochemical; details: 40° C./75% RH
Description: Each compound was formulated in 0.9% w/w saline with addition of 0.1% w/w EDTA at about pH 5. The formulations were stored in the dark under accelerated conditions (40° C./75% RH) and reference formulations were stored at -80° C. At days 0, 9 and 28, samples were analysed by UHPLC and pH was measured.
Approximately 1.5 mg of each compound was weighed into glass HPLC vials and 1.5 mL of saline/EDTA formulation adjusted to pH 5.0 was added. The vials were vortex mixed then warmed under running hot water until full dissolution was observed.
4 × 100 uL aliquots of each solution were transferred to Agilent polypropylene 200 µL HPLC vials for storage under accelerated and reference conditions (two aliquots at each condition). These vials were removed at each time point for HPLC analysis. The frozen reference solutions at Day 9 and Day 28 were gently warmed under running hot water followed by vortex mixing for ~ 10 sec and sonication for 10 min to encourage complete dissolution. […]
Compounds B4 and B12 were analysed according to Gradient 2: […]
UHPLC results were analysed in a similarly to that described in Example 8. […]
Percentage recovery of main peak area is calculated according to the following equation (1): […]

T1 sequence (O60603 21-784): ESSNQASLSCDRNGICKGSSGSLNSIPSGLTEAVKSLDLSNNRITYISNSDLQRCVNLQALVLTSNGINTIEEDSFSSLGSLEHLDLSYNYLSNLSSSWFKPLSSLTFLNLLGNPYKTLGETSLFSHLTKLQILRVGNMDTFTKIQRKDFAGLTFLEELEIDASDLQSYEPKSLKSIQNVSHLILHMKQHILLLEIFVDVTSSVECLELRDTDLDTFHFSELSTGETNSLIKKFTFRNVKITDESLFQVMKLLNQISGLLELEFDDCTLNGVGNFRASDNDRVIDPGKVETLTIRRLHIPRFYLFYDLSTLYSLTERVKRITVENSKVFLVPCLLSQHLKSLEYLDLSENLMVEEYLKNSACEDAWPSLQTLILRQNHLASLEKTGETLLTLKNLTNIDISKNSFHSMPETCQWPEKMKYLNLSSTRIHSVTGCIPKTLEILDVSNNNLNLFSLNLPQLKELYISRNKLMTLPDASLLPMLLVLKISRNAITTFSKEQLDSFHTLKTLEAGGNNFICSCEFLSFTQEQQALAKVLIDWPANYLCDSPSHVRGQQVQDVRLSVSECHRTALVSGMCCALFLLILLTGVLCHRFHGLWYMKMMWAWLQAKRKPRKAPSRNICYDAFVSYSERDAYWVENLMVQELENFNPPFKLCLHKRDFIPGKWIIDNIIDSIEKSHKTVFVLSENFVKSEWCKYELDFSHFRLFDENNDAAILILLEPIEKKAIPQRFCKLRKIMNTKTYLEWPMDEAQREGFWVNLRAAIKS
T1 sequence (Q9Y2C9 32-796 partner): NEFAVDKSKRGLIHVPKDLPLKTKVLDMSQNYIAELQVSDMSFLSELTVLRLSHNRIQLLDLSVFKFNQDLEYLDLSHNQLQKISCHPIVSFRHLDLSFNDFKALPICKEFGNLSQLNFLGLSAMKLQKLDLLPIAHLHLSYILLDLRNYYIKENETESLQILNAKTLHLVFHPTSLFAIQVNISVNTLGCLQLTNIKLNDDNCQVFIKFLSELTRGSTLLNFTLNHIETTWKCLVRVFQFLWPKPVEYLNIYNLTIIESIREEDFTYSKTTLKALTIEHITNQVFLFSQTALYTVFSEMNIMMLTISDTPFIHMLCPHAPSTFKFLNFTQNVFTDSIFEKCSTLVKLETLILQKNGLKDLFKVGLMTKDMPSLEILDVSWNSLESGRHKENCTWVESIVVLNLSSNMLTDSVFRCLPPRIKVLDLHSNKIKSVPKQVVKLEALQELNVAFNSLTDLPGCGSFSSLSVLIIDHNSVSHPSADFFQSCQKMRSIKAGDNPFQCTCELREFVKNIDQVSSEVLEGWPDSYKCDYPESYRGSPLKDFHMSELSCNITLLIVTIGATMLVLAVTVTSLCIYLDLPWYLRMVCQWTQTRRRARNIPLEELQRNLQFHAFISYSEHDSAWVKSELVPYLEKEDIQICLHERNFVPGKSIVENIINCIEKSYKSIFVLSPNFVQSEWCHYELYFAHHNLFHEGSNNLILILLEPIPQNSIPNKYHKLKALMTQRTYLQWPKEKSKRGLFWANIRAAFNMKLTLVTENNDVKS

activity at TLR2 (in words) [1] | stability under accelerated storage conditions (in words) [2] | storage stability under accelerated conditions (in words) [3] | SMILES
significant activity | excellent stabilities | most stable compounds | CCCCCCCCCCCCCCC(C)C(=O)OCC[C@H](CSC[C@H](N)C(=O)N[C@@H](CO)C(=O)NCCOCCOCCOCCOCCOCCOCCOCCOCCOCCOCCOCCOCCOCCOCCOCCOCCOCCOCCOCCOCCOCCOCCOCCOCCOCCOCCOCCOCCC(=O)NCC(N)=O)OC(=O)C(C)CCCCCCCCCCCCCC (stereo partly shown) [Compound B12]
 |  | most stable compounds | CCCCCCCCCCCCCCC(C)C(=O)OC[C@H](CSC[C@H](N)C(=O)N[C@@H](CO)C(=O)NCCOCCOCCOCCOCCOCCOCCOCCOCCOCCOCCOCCOCCOCCOCCOCCOCCOCCOCCOCCOCCOCCOCCOCCOCCOCCOCCOCCOCCC(=O)NCC(N)=O)OC(=O)C(C)CCCCCCCCCCCCCC (stereo partly shown) [Compound B4]

From patent US20230278954A1, “BRANCHED LIPID COMPOUDS” (priority 2020, published 2023)
